In US6339096B1, “Urethanes derived from azacycloalkanes, the thio and dithio analogues thereof and their use as cholesterol biosynthesis inhibitors” (Boehringer Ingelheim Pharma KG, priority 1998, dated 2002):
Where a name gives a salt, the structure may show the parent alone.

Columns and labels:
[1] = test system: ^14C-acetate incorporation into the steroids which can be precipitated with digitonin; assay: Inhibition of 14C-acetate incorporation into the steroids which can be precipitated with digitonin; format: cell-based; settings: for inhibition at 0.01 µM / inhibition at 0.001 µM: read-out: percentage by which the compound inhibits the 14C-acetate incorporation
Description: I. Measuring the Inhibition of ^14C-acetate Incorporation into the Steroids which can be Precipitated with Digitonin
The inhibitory effect was investigated using the method described in J. Lipid. Res. 37, 148-157 [1996] at test concentrations of 10^−8 and 10^−9 mol/l.
The IC50 values of compounds H, I, K and M were determined.

[2] = biological target: T1, 2,3-epoxysqualene-lanosterol-cyclase (Rattus norvegicus, UniProt P48450); assay: In-vivo activity in the rat after oral administration: 2,3-epoxysqualene level in the liver
T1 construct: The quantity of 2,3-epoxysqualene formed therefore serves as a direct measurement of the potency on the animal as a whole; from tissue; host or cells: living rat; 2,3-epoxysqualene measured in the liver
T1 sequence (P48450 1-733): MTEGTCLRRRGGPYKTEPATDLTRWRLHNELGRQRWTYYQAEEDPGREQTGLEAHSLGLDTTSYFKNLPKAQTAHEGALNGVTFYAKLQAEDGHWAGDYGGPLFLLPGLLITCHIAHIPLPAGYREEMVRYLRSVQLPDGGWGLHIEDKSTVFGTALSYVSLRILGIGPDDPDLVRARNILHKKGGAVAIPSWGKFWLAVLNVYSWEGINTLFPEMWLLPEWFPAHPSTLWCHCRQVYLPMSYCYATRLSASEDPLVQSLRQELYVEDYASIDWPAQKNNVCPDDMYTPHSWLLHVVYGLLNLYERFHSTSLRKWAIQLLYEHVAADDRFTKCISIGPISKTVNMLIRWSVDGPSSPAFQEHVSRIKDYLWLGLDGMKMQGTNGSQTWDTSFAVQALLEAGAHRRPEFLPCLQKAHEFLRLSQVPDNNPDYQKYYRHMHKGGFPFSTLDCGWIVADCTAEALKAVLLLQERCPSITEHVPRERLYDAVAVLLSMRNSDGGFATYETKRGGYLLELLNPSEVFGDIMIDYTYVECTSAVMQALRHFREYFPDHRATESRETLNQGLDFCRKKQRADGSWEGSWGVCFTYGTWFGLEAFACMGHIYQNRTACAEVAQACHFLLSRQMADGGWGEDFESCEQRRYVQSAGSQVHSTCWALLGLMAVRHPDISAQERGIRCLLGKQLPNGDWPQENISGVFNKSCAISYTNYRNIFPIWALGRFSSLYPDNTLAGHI
Description: II. Measuring the In-vivo Activity in the Rat after Oral Administration
Inhibiting the enzyme 2,3-epoxysqualene-lanosterol-cyclase causes an increase in the 2,3-epoxisqualene levels in the liver and plasma. The quantity of 2,3-epoxysqualene formed therefore serves as a direct measurement of the potency on the animal as a whole. The amounts were determined using the method described in J. Lipid. Res. 38, 564-575, [1997] after t=3 or 8 hours after administration of the substance in concentrations of c=0.01, 0.03, 0.1, 0.3 and 1.0 mg/kg. Table 3 which follows gives the results obtained for the abovementioned substances A, B, C, D, E, G, H, I and K by way of example.
In the control animals there were no measurable 2,3-epoxisqualene levels under these conditions.

[3] = test system: normolipaemic golden hamster; assay: Lipid reduction in the normolipaemic golden hamster; format: in vivo; settings: compared with control group
Description: III. Lipid Reduction in the Normolipaemic Golden Hamster This was determined using the method described in J. Lipid. Res. 38, 564-575, (1997). At the end of the experiment the total cholesterol, β-lipoprotein-cholesterol and HDL-cholesterol were determined and compared with the values of a control group which were fed without any test substance. The lipid-lowering activity of the abovementioned compound H was tested.

SMILES	2,3-epoxysqualene concentration in the liver (rat) ([2]; c=0.1 mg/kg, t=3 h) [µg/g]	2,3-epoxysqualene concentration in the liver (rat) ([2]; c=1.0 mg/kg, t=3 h) [µg/g]	2,3-epoxysqualene concentration in the liver (rat) ([2]; c=1.0 mg/kg, t=8 h) [µg/g]	IC50 [1] [nM]	inhibition at 0.01 µM ([1]; test concentration 10^−8 mol/l) [%]	inhibition at 0.001 µM ([1]; test concentration 10^−9 mol/l) [%]	2,3-epoxysqualene concentration in the liver (rat) ([2]; c=0.1 mg/kg, t=8 h) [µg/g]	other results
CN(C)Cc1ccc([C@H]2CC[C@H](N(C)C(=O)c3ccc(Cl)cc3)CC2)cc1 [(V), reference compound]	–	–	–	3.8	–	–	–	percentage by which the compound inhibits the 14C-acetate incorporation ([1]; test concentration 10^−8 mol/l): −59%; percentage by which the compound inhibits the 14C-acetate incorporation ([1]; test concentration 10^−9 mol/l): −23%
Cc1ccc(CC(=O)O[C@H]2CC[C@H](c3ccc(CN(C)C)cc3)CC2)cc1 [(W), trans-O-(p-tolylacetyl)-4-(4-dimethylaminomethylphenyl)cyclohexanol, reference compound]	–	–	–	9.6	72	21	–	–
CN(C)Cc1ccc(CC2CCN(C(=O)Oc3ccc(Cl)cc3)CC2)cc1.Cl [(H), N-(4-chlorophenoxy)carbonyl-4-[4-(dimethylaminomethyl)benzyl]piperidine-hydrochloride]	1.0	56.3	20.7	0.8	80	45	0.8	HDL-cholesterol ([3]; dose 6.5 mg/kg/day): −3.4%; Total cholesterol ([3]; dose 6.5 mg/kg/day): −8.3%; β-Lipoprotein-cholesterol ([3]; dose 6.5 mg/kg/day): −13.0%; HDL-cholesterol ([3]; dose 19.9 mg/kg/day): −8.2%; Total cholesterol ([3]; dose 19.9 mg/kg/day): −11.0%; β-Lipoprotein-cholesterol ([3]; dose 19.9 mg/kg/day): −13.2%; HDL-cholesterol ([3]; dose 62.3 mg/kg/day): −28.5%; Total cholesterol ([3]; dose 62.3 mg/kg/day): −32.1%; β-Lipoprotein-cholesterol ([3]; dose 62.3 mg/kg/day): −33.7%
Cc1ccc(OC(=S)N2CCC(Cc3ccc(CN(C)C)cc3)CC2)cc1 [(L), 4-[4-(dimethylaminomethyl)benzyl]-N-(4-methylphenoxy)thiocarbonylpiperidine-hydrochloride]	–	–	–	–	88	64	–	–
CN(C)Cc1ccc(CC2CCN(C(=O)Oc3ccc(F)cc3)CC2)cc1.Cl [(M), 4-[4-(dimethylaminomethyl)benzyl]-N-(4-fluorphenoxy)carbonylpiperidine-hydrochloride]	–	–	–	1.5	–	–	–	percentage by which the compound inhibits the 14C-acetate incorporation ([1]; test concentration 10^−8 mol/l): −84%; percentage by which the compound inhibits the 14C-acetate incorporation ([1]; test concentration 10^−9 mol/l): −59%; HDL-cholesterol ([3]; dose 57.5 mg/kg/day): −20.4%; Total cholesterol ([3]; dose 57.5 mg/kg/day): −26.8%; β-Lipoprotein-cholesterol ([3]; dose 57.5 mg/kg/day): −31.6%
CN(C)Cc1ccc(SC2CCN(C(=O)Oc3ccccc3)CC2)cc1.Cl	–	–	–	–	–	–	–	melting point: 161 °C
Cc1ccc(OC(=O)N2CCC(Cc3ccc(CN(C)C)cc3)CC2)cc1.Cl [(K), 4-[4-(dimethylaminomethyl)benzyl]-N-(4-methylphenoxy)carbonylpiperidine-hydrochloride]	0.4	24.0	5.5	1.4	82	49	0.4	HDL-cholesterol ([3]; dose 54.2 mg/kg/day): 2.3%; Total cholesterol ([3]; dose 54.2 mg/kg/day): −6.8%; β-Lipoprotein-cholesterol ([3]; dose 54.2 mg/kg/day): −21.2%
CN(C)Cc1ccc(C=C2CCN(C(=S)SCc3ccccc3)CC2)cc1 [(F), N-(benzylthio)thiocarbonyl-4-[4-(dimethylaminomethyl)benzyliden]piperidine-hydrochloride]	–	–	–	–	84	45	–	–
CN(C)Cc1ccc(SC2CCN(C(=O)Oc3ccc(Cl)cc3)CC2)cc1.Cl [(D), N-(4-chlorophenoxy)carbonyl-4-[4-(dimethylaminomethyl)phenylthio]piperidine-hydrochloride]	1.4	–	–	–	86	55	1.8	2,3-epoxysqualene concentration in the liver (rat) ([2]; c=0.01 mg/kg, t=3 h): 1.3 µg/g; 2,3-epoxysqualene concentration in the liver (rat) ([2]; c=0.01 mg/kg, t=8 h): 1.0 µg/g

Second part, led by results:

2,3-epoxysqualene concentration in the liver (rat) ([2]; c=0.1 mg/kg, t=3 h) [µg/g]	2,3-epoxysqualene concentration in the liver (rat) ([2]; c=1.0 mg/kg, t=3 h) [µg/g]	2,3-epoxysqualene concentration in the liver (rat) ([2]; c=1.0 mg/kg, t=8 h) [µg/g]	SMILES	IC50 [1] [nM]	inhibition at 0.01 µM ([1]; test concentration 10^−8 mol/l) [%]	inhibition at 0.001 µM ([1]; test concentration 10^−9 mol/l) [%]	2,3-epoxysqualene concentration in the liver (rat) ([2]; c=0.1 mg/kg, t=8 h) [µg/g]	other results
1.0	26.1	10.0	CN(C)Cc1ccc(CC2CCN(C(=O)OCc3ccccc3)CC2)cc1.Cl [(I), N-benzyloxycarbonyl-4-[4-(dimethylaminomethyl)benzyl]piperidine-hydrochloride]	1.2	85	47	–	–
5.6	–	–	CN(C)Cc1ccc(CC2CCN(C(=S)SCc3ccccc3)CC2)cc1.Cl [(E), N-(benzylthio)thiocarbonyl-4-[4-(dimethylaminomethyl)benzyl]piperidine-hydrochloride]	–	87	47	4.4	2,3-epoxysqualene concentration in the liver (rat) ([2]; c=0.01 mg/kg, t=3 h): 0.9 µg/g; 2,3-epoxysqualene concentration in the liver (rat) ([2]; c=0.01 mg/kg, t=8 h): 1.0 µg/g
10.3	87.4	134.2	CN(C)Cc1ccc(CC2CCN(C(=S)Oc3ccc(Cl)cc3)CC2)cc1.Cl [(G), N-(4-chlorophenoxy)thiocarbonyl-4-[4-(dimethylaminomethyl)benzyl]piperidine-hydrochloride]	–	83	56	11.5	–
0.5	3.8	2.0	CN(C)Cc1ccc(SC2CCN(C(=O)OCc3ccccc3)CC2)cc1.Cl [(C), N-benzyloxycarbonyl-4-[4-(dimethylaminomethyl)phenylthio]piperidine-hydrochloride]	–	78	57	1.3	2,3-epoxysqualene concentration in the liver (rat) ([2]; c=0.01 mg/kg, t=3 h): 0.6 µg/g; 2,3-epoxysqualene concentration in the liver (rat) ([2]; c=0.01 mg/kg, t=8 h): 3.0 µg/g; 2,3-epoxysqualene concentration in the liver (rat) ([2]; c=0.3 mg/kg, t=3 h): 0.5 µg/g; 2,3-epoxysqualene concentration in the liver (rat) ([2]; c=0.3 mg/kg, t=8 h): 1.8 µg/g
–	39.2	42.0	CN(C)Cc1ccc(C(=O)C2CCN(C(=S)SCc3ccccc3)CC2)cc1.Cl [(B), N-(benzylthio)thiocarbonyl-4-[4-(dimethylaminomethyl)benzoyl]piperidine-hydrochloride]	–	85	47	–	2,3-epoxysqualene concentration in the liver (rat) ([2]; c=0.3 mg/kg, t=3 h): 4.5 µg/g; 2,3-epoxysqualene concentration in the liver (rat) ([2]; c=0.3 mg/kg, t=8 h): 5.8 µg/g
–	9.3	9.8	CN(C)Cc1ccc(SC2CCN(C(=S)SCc3ccccc3)CC2)cc1.Cl [(A), N-(benzylthio)thiocarbonyl-4-[4-(dimethylaminomethyl)phenylthio]piperidine-hydrochloride]	–	85	53	–	2,3-epoxysqualene concentration in the liver (rat) ([2]; c=0.3 mg/kg, t=3 h): 2.0 µg/g; 2,3-epoxysqualene concentration in the liver (rat) ([2]; c=0.3 mg/kg, t=8 h): 1.2 µg/g
